Data published in ChEMBL document CHEMBL1268936, “Towards a systematic characterization of the antiprotozoal activity landscape of benzimidazole derivatives” (Bioorg Med Chem, 2010).

What was measured:
[1] = test system: Trichomonas vaginalis; experiment: Antiprotozoal activity against Trichomonas vaginalis; format: functional, organism-based
[2] = test system: Giardia intestinalis; experiment: Antiprotozoal activity against Giardia intestinalis; format: functional, organism-based; conditions: Giardia duodenalis

Row | IC50 [1] | IC50 [2] | SMILES
1 | 10000 nM | 22.9 nM | FC(F)(F)C(F)(F)c1nc2c(Br)c(Br)c(Br)c(Br)c2[nH]1
2 | 2 nM | 56.2 nM | FC(F)(F)c1nc2c(Br)c(Br)c(Br)c(Br)c2[nH]1
3 | 219 nM | 120 nM | FC(F)(F)c1nc2cc(Br)c(Br)cc2[nH]1

The next lines start with the compound.

Row | SMILES | IC50 [1] | IC50 [2]
4 | CCCSc1ccc2c(c1)nc(C(F)(F)F)n2C | 200 nM | 10500 nM
5 | CCCSc1ccc2nc(C(F)(F)F)n(C)c2c1 | 2570 nM | 1410 nM
6 | Cn1c(C(F)(F)F)nc2cc(C(=O)c3ccccc3)ccc21 | 29500 nM | 1100 nM
7 | Cn1c(C(F)(F)F)nc2ccc(C(=O)c3ccccc3)cc21 | 10700 nM | 1290 nM
8 | FC(F)(F)C(F)(F)c1nc2cc(Cl)c(Cl)cc2[nH]1 | 302 nM | 562 nM
9 | O=[N+]([O-])c1cc2nc(C(F)(F)F)[nH]c2cc1[N+](=O)[O-] | 575 nM | 240 nM
